Publication PMC12037037 (Proceedings of the National Academy of Sciences of the …, 2025)

How the values were obtained:
[1] = biological target: T1, 5-HT2A receptors (Gi1, Gi3 activation) (Homo sapiens, UniProt P28223); experiment: BRET-based assays of Gi1 and Gi3 activation; assay type: cell-based
T1 construct: expressed in transfected cells; host or cells: HEK293T (transient)

[2] = system: female C57BL/6J mice, medial prefrontal cortex; experiment: In vivo spinogenesis and synaptogenesis (S3EM, layer 1 mPFC); conditions: 24 h
male C57BL/6J mice = experiment: PCP-induced locomotion (Psychogenics); assay type: in vivo
Description: (§1) IP) can block AMPH-induced hyperlocomotion in female, but not male, mice. (B) Pretreatment with (+)-JRT (1 mg/kg, IP) […]
(§2) AMPH = (+)-amphetamine; PCP = phencyclidine; VEH = vehicle; ns = not significant. *p < 0.05, **p < 0.01, ***p < 0.001, ****p < 0.0001, as compared to the comparator(s) indicated by a horizontal bar. See Methods and SI Appendix, Table S1 for full details on statistics.
(1 picture or pasted object on this page, not shown here) […]
PCP-Induced Locomotion. The PCP-induced hyperlocomotion assay was performed by Psychogenics using male C57BL/6J mice that were approximately 8 weeks old at the time of the experiments. The experiment was performed during the animal’s light cycle phase. On the day of testing, animals were acclimated to the experimental room for at least 1 h prior to treatment. Animals were then administered with VEH or JRT (IP, 10 mL/kg) and placed in holding cages for 30 min, after which mice were placed in the open field chambers (27.3 x 27.3 x 30.3; Med Associates Inc., St Albans, VT). Baseline activity was recorded for 30 min. Next, mice received either PCP (5 mg/kg, IP, 10 ml/kg) or VEH and were returned to the open field chambers for a 60 min test session. Locomotion was assessed using consecutive infrared beam breaks. At the end of each session, the chambers were thoroughly cleaned. […]
(§3) Reads were aligned to the GRCm39 genome assembly using STAR, processed with Picard, and counted with the Subread software. Transcript inclusion criteria consisted of a minimum raw expression level of 25 transcripts in a minimum of 4 samples. Surrogate variable analysis was conducted with the sva package 2023 release v3.5.0 in R and normalization and differential expression analysis was performed with DESeq2 v4.3 with a baseMean threshold of 10. Heatmaps were created with the pheatmap v1.0.12 with sample-wise z-scores plotted and both row and column grouping allowed using pearson's distances and ward.D for clustering. Gene-wise selection criteria for heatmaps were a baseMean expression threshold of 50 to focus on robustly expressed genes, p value < 0.05, and presence in the top 250 genes sorted by absolute value of log2FC. Additionally, z score was capped at 2 for visualization purposes. Schizophrenia gene sets were extracted from a recent TWAS study (30).
(§4) For Figure S8G, the TWAS set was filtered for FDR < 0.01. Permutation testing was conducted to quantify the overlap of top genes from schizophrenia TWAS with the perm_test function from the bulkWarehouse package 2023 release v1.2.7.
(§5) Briefly, the intersection of top differentially expressed genes and top TWAS genes is compared to an empirical distribution created by calculating the intersection with our top DEGs when randomly sampling candidate genes from our dataset equal to the size of the TWAS sample. […]

[3] = biological target: psychLight S242A^5.46 (murinized variant) (Homo sapiens, UniProt P28223, S242A); experiment: PsychLight assay, S242A^5.46 mutant; assay type: cell-based
psychLight S242A^5.46 (murinized variant), sequence (P28223 with tags, fused parts or gaps S242A): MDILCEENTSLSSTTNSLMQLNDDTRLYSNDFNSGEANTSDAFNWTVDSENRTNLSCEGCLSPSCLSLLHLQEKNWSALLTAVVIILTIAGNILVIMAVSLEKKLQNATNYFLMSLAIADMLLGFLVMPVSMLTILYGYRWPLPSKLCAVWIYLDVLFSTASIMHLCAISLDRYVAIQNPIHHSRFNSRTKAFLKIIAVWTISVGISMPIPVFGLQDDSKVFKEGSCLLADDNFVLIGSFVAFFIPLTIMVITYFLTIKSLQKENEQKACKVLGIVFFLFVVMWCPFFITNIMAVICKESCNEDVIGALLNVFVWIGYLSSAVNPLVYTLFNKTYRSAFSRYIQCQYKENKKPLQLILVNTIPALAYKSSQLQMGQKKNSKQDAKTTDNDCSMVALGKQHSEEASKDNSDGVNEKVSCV
psychLight S242A^5.46 (murinized variant), sequence (P42212 with tags, fused parts or gaps partner): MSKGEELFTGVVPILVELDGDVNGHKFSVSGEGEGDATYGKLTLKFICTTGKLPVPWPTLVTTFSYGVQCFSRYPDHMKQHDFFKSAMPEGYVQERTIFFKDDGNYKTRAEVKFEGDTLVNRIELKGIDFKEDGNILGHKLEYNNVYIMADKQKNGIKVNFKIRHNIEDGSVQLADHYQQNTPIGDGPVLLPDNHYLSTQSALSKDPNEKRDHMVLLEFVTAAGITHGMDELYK

C57BL/6J mice = experiment: Amphetamine-induced locomotion; assay type: in vivo; conditions: (+)-JRT 1 mg/kg + AMPH 3 mg/kg
Description: Figure S11. […] (A) Pretreatment with (+)-JRT (1 mg/kg,
as §1, §2
(1 picture or pasted object on this page, not shown here)
Amphetamine-Induced Locomotion. The amphetamine-induced hyperlocomotion assay was performed using male and female C57BL/6J mice that were approximately 8 weeks old at the time of the experiments. Animals were first placed in the test arena (40 cm x 40 cm) for 15 min to obtain a basal reading of locomotion and habituate them to the testing arena.
Next, animals were administered (+)-JRT (1 mg/kg) or VEH (2.5 mL/kg, i.p) and placed back in the test arena. After 15 min, the animals were administered (+)-amphetamine (3 mg/kg) or VEH (2.5 mL/kg) and placed back in the test arena for 60 minutes. Locomotion during the entire experiment was quantified using ANYmaze Video Tracking System, version 7.07 (Stoelting Co.). The test arena was cleaned thoroughly with 70% ethanol between trials. […]
as §3, §4, §5

[4] = system: cultured rat embryonic cortical neurons; experiment: Neuritogenesis assay (Sholl analysis, DIV6); assay type: cell-based
male Long Evans rats = experiment: Probabilistic reward task (PRT) under chronic cold-water stress; assay type: in vivo; conditions: for Response bias (log b) (Figure 6G): JRT 1 mg/kg
[5] = system: Thy1-EGFP mice, layer 2/3 of the mPFC; experiment: In vivo spinogenesis after chronic corticosterone administration; conditions: 24 h, mean ± SEM

T1 sequence (P28223 whole entry): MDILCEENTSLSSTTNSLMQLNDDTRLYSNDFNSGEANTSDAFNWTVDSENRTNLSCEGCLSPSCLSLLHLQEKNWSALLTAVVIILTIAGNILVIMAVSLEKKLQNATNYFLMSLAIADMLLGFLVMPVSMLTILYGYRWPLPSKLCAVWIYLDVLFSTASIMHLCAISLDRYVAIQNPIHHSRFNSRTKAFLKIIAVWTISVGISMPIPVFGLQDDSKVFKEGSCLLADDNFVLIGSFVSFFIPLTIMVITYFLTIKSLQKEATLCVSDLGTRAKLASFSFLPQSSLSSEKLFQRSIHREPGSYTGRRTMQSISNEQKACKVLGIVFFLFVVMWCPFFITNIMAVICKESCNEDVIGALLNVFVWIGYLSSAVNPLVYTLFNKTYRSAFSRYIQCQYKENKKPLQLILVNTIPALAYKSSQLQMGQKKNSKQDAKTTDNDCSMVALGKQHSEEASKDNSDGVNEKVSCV

CCN(CC)C(=O)[C@@H]1C=C2c3cccc4ccn(c34)C[C@H]2N(C)C1 [(+)-JRT]
Gi activation following stimulation of 5-HT2A receptors [1]: does not activate
Synapse size ([2]; 1 mg/kg IP): remained unchanged
Increase in synapse density within the mPFC ([2]; single administration 1 mg/kg IP, S3EM): 18%
Increase in dendritic spine density within the mPFC ([2]; single administration 1 mg/kg IP, layer 1, S3EM): 46%
Locomotion, infrared beam breaks (Figure 11B) (male C57BL/6J mice; (+)-JRT (0.1) + PCP 5 mg/kg IP): 30482 ± 2310
Locomotion, infrared beam breaks (Figure 11B) (male C57BL/6J mice; (+)-JRT (0.3) + PCP 5 mg/kg IP): 26618 ± 2425
Locomotion, infrared beam breaks (Figure 11B) (male C57BL/6J mice; (+)-JRT (1) + PCP 5 mg/kg IP): 27253 ± 2401
EC50 ([3]; psychLight (S242A^5.46): EC50, agonist mode): 39 nM
EC50 ([3]; psychLight (S242A^5.46): EC50, antagonist mode, cotreated with 10 μM serotonin (5-HT + compound)): 473 nM
Emax ([3]; read-out: psychLight (S242A^5.46): EMax): 32%
Locomotion (Figure 11A Females) (C57BL/6J mice; female mice, VEH + VEH 101.9 ± 15.04): 217.2 ± 47.70
Locomotion (Figure 11A Males) (C57BL/6J mice; male mice, VEH + VEH 59.80 ± 4.206): 361.2 ± 35.54
Nmax (maximum number of crossings of the Sholl plots) ([4]; 1 μM, DIV6, compared to vehicle control): increased Nmax values to a greater extent than CLZ
Area under the curves of the Sholl plots (Figure S8D) ([4]; 1 µM, DIV6, VEH 1.000 ± 0.05010, mean ± SEM): 1.193 ± 0.05057
Total branches (Figure S8C) ([4]; 1 µM, DIV6, VEH 2.325 ± 0.2641, mean ± SEM): 4.121 ± 0.3838
Number of primary dendrites (Figure S8B) ([4]; 1 µM, DIV6, VEH 6.275 ± 0.2292, mean ± SEM): 8.152 ± 0.2824
Persistence of the effect on response bias following a single dose (male Long Evans rats; 1 mg/kg, continued daily cold-water stress): at least 3 d
Response bias (log b) (Figure 6G) (male Long Evans rats; Day 2, Day 1 0.131 ± 0.082): 0.406 ± 0.069
Response bias (log b) (Figure 6G) (male Long Evans rats; Day 3, Day 1 0.131 ± 0.082): 0.474 ± 0.112
Response bias (log b) (Figure 6G) (male Long Evans rats; Day 11, Day 1 0.131 ± 0.082): 0.290 ± 0.061
Response bias (log b) (Figure 6G) (male Long Evans rats; Day 1 (stressed, before drug) 0.131 ± 0.082): 0.491 ± 0.071
Dendritic spine density, layer 2/3 mPFC (Table S1, matches Fig. 4N) ([5]; GH (gentle handling) + JRT 1 mg/kg IP, GH VEH 12.17 ± 0.5278): 11.36 ± 0.8451
Dendritic spine density, layer 2/3 mPFC (Table S1, matches Fig. 4N) ([5]; chronic CORT 20 d + JRT 1 mg/kg IP): 10.77 ± 0.5664
